From PubChem BioAssay (NCI)
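Protocol summary: plate cells (96-well), add compound at 5 concentrations, incubate 48 h, interpolate endpoints linearly. TGI is the concentration that stops growth completely.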

Legend:
Assay in all cases: NCI anticancer screen, dose series, 48 h
HOP-92 NSCLC = test system: HOP-92 NSCLC
SK-MEL-5 melanoma = test system: SK-MEL-5 melanoma
SK-MEL-28 melanoma = test system: SK-MEL-28 melanoma
CAKI-1 renal = test system: CAKI-1 renal
EKVX NSCLC = test system: EKVX NSCLC
COLO 205 colon = test system: COLO 205 colon
SK-OV-3 ovarian = test system: SK-OV-3 ovarian
SK-MEL-2 melanoma = test system: SK-MEL-2 melanoma
NCI/ADR-RES ovarian = test system: NCI/ADR-RES ovarian
HS 578T breast = test system: HS 578T breast
PC-3 prostate = test system: PC-3 prostate
SR leukemia = test system: SR leukemia
SNB-19 CNS = test system: SNB-19 CNS
K-562 leukemia = test system: K-562 leukemia
RPMI-8226 leukemia = test system: RPMI-8226 leukemia
MDA-MB-435 = test system: MDA-MB-435
LOX IMVI melanoma = test system: LOX IMVI melanoma
OVCAR-4 ovarian = test system: OVCAR-4 ovarian
T-47D breast = test system: T-47D breast
OVCAR-3 ovarian = test system: OVCAR-3 ovarian
DU-145 prostate = test system: DU-145 prostate
RXF 393 renal = test system: RXF 393 renal
OVCAR-5 ovarian = test system: OVCAR-5 ovarian
SF-268 CNS = test system: SF-268 CNS
M14 melanoma = test system: M14 melanoma
BT-549 breast = test system: BT-549 breast
ACHN renal = test system: ACHN renal
SF-539 CNS = test system: SF-539 CNS
U251 CNS = test system: U251 CNS
786-0 renal = test system: 786-0 renal
TK-10 renal = test system: TK-10 renal
HCC-2998 colon = test system: HCC-2998 colon
HL-60(TB) leukemia = test system: HL-60(TB) leukemia
SF-295 CNS = test system: SF-295 CNS
SN12C renal = test system: SN12C renal
UO-31 renal = test system: UO-31 renal
NCI-H460 lung = test system: NCI-H460 lung
KM12 colon = test system: KM12 colon
MALME-3M melanoma = test system: MALME-3M melanoma
SW-620 colon = test system: SW-620 colon
IGROV1 ovarian = test system: IGROV1 ovarian
HCT-15 colon = test system: HCT-15 colon
UACC-257 melanoma = test system: UACC-257 melanoma
MDA-MB-231 breast = test system: MDA-MB-231 breast
MCF7 breast = test system: MCF7 breast
CCRF-CEM leukemia = test system: CCRF-CEM leukemia
HT29 colon = test system: HT29 colon
NCI-H23 lung = test system: NCI-H23 lung
HOP-62 NSCLC = test system: HOP-62 NSCLC
SNB-75 CNS = test system: SNB-75 CNS
OVCAR-8 ovarian = test system: OVCAR-8 ovarian
HCT-116 colon = test system: HCT-116 colon
NCI-H226 lung = test system: NCI-H226 lung
MOLT-4 leukemia = test system: MOLT-4 leukemia
NCI-H522 lung = test system: NCI-H522 lung
MDA-N = test system: MDA-N
A549 NSCLC = test system: A549 NSCLC
UACC-62 melanoma = test system: UACC-62 melanoma

CC(C)OP(=O)(CCCCCCCCC/C=C/c1ccc2c(c1)OCCOCCOCCOCCO2)OC(C)C
TGI (HOP-92 NSCLC): 5.8 µM | TGI (SK-MEL-5 melanoma): 7.76 µM | TGI (SK-MEL-28 melanoma): 20.1 µM | TGI (CAKI-1 renal): 11.7 µM | TGI (EKVX NSCLC): 11.8 µM | TGI (COLO 205 colon): 3.89 µM | TGI (SK-OV-3 ovarian): 9.19 µM | TGI (SK-MEL-2 melanoma): 8.69 µM | TGI (NCI/ADR-RES ovarian): 10.5 µM | TGI (HS 578T breast): 9.02 µM | TGI (PC-3 prostate): 9.51 µM | TGI (SR leukemia): 15.4 µM | TGI (SNB-19 CNS): 15.2 µM | TGI (K-562 leukemia): 24.1 µM | TGI (RPMI-8226 leukemia): > 100 µM | TGI (MDA-MB-435): 13.6 µM | TGI (LOX IMVI melanoma): 4.93 µM | TGI (OVCAR-4 ovarian): 16.2 µM | TGI (T-47D breast): 9.11 µM | TGI (OVCAR-3 ovarian): 10 µM | TGI (DU-145 prostate): 15.2 µM | TGI (RXF 393 renal): 9.12 µM | TGI (OVCAR-5 ovarian): 11.4 µM | TGI (SF-268 CNS): 16.8 µM | TGI (M14 melanoma): 13.5 µM | TGI (BT-549 breast): 9.09 µM | TGI (ACHN renal): 11.8 µM | TGI (SF-539 CNS): 12.4 µM | TGI (U251 CNS): 7.74 µM | TGI (786-0 renal): 14.1 µM | TGI (TK-10 renal): 21.4 µM | TGI (HCC-2998 colon): 14.2 µM | TGI (HL-60(TB) leukemia): 30.7 µM | TGI (SF-295 CNS): 10.3 µM | TGI (SN12C renal): 14.2 µM | TGI (UO-31 renal): 9.02 µM | TGI (NCI-H460 lung): 7.37 µM | TGI (KM12 colon): 11 µM | TGI (MALME-3M melanoma): 13.7 µM | TGI (SW-620 colon): 14.7 µM | TGI (IGROV1 ovarian): 16.2 µM | TGI (HCT-15 colon): 10.3 µM | TGI (UACC-257 melanoma): 10.2 µM | TGI (MDA-MB-231 breast): 12.6 µM | TGI (MCF7 breast): 11.2 µM | TGI (CCRF-CEM leukemia): 7.5 µM | TGI (HT29 colon): 11 µM | TGI (NCI-H23 lung): 8.21 µM | TGI (HOP-62 NSCLC): 6.15 µM | TGI (SNB-75 CNS): 10.4 µM | TGI (OVCAR-8 ovarian): 12.1 µM | TGI (HCT-116 colon): 11.2 µM | TGI (NCI-H226 lung): 9.24 µM | TGI (MOLT-4 leukemia): 10.7 µM | TGI (NCI-H522 lung): 10.1 µM | TGI (MDA-N): 13.5 µM | TGI (A549 NSCLC): 13.6 µM | TGI (UACC-62 melanoma): 14.8 µM
